In patent publication US12187723B2 (BRISTOL-MYERS SQUIBB COMPANY, priority 2019, dated 2025):
Counter-ions that a name gives are not always drawn.

Molecular target: T1, human TLR7 (Homo sapiens, UniProt Q9NYK1)
T1 construct: host or cells: HEK-Blue cells
T1 sequence (Q9NYK1 27-1049): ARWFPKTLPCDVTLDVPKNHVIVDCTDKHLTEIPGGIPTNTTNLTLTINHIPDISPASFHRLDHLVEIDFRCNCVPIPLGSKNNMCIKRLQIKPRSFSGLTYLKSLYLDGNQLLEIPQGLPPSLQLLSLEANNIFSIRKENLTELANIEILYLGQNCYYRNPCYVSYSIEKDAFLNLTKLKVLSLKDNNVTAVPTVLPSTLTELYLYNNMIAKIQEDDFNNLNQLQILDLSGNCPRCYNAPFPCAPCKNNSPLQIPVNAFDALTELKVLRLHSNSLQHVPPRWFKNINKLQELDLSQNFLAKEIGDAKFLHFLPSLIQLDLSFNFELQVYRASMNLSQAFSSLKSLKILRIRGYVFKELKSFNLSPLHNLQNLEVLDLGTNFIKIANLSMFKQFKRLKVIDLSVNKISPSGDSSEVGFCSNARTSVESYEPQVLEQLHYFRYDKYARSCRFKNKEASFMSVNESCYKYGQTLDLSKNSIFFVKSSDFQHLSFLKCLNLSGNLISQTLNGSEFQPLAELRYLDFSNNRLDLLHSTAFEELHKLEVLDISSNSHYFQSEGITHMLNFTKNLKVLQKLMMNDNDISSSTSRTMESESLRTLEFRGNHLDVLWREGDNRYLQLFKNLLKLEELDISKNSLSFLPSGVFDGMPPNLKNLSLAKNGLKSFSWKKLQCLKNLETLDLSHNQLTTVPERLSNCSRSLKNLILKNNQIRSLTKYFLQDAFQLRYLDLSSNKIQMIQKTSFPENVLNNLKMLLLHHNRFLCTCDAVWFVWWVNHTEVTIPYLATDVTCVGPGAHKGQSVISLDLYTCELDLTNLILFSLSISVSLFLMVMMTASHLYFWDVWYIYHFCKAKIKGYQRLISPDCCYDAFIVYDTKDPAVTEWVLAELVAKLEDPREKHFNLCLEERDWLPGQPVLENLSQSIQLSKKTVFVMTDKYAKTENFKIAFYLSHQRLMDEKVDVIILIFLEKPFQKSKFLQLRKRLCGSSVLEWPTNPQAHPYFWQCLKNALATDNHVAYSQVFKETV
Experiment: TLR7 inhibition reporter assay (HEK-Blue SEAP)
Format: cell-based
Conditions: HEK-Blue cells overexpressing human TLR7, gardiquimod 7.5 μM, 22 hour incubation
Procedure, shortened: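 Dose-response testing from 0.05 nM to 50 μM final was done on reporter cells for 22 hours at 37° C. Secreted SEAP was then detected, and inhibition was calculated as percent reduction of the agonist-plus-DMSO signal compared with wells given a known inhibitor.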

Structure (SMILES) | IC50
Cc1c(-c2cc3[nH]c(=O)n(C4CCC(N5CC6(COC6)C5)CC4)c3cc2C(C)C)cn2ncnc2c1C (single isomer, unassigned) [Example 281, 1-(4-(2-oxa-6-azaspiro[3.3]heptan-6-yl)cyclohexyl)-5-(7,8-dimethyl-[1,2,4]triazolo[1,5-a]pyridin-6-yl)-6-isopropyl-1,3-dihydro-2H-benzo[d]imidazol-2-one] | 12.4 nM
Cc1c(-c2cc3[nH]c(=O)n(C4CCC(N5CCC6(CC5)COC6)CC4)c3cc2C(C)C)cn2ncnc2c1C (single isomer, unassigned) [Example 282, 1-(4-(2-oxa-7-azaspiro[3.5]nonan-7-yl)cyclohexyl)-5-(7,8-dimethyl-[1,2,4]triazolo[1,5-a]pyridin-6-yl)-6-isopropyl-1,3-dihydro-2H-benzo[d]imidazol-2-one] | 10.1 nM
Cc1c(-c2cc3[nH]c(=O)n(C4CCC(N5CCC6(CC5)COC6)CC4)c3cc2C(C)C)cn2ncnc2c1C (single isomer, unassigned) [Example 283, 1-(4-(2-oxa-7-azaspiro[3.5]nonan-7-yl)cyclohexyl)-5-(7,8-dimethyl-[1,2,4]triazolo[1,5-a]pyridin-6-yl)-6-isopropyl-1,3-dihydro-2H-benzo[d]imidazol-2-one] | 1.82 nM
COc1cc(-c2cc3[nH]c(=O)n(C4CCC(N5CCC(S(C)(=O)=O)C5)CC4)c3cc2C(C)C)cn2ncnc12 (single isomer, unassigned) [Example 288, 6-isopropyl-5-(8-methoxy-[1,2,4]triazolo[1,5-a]pyridin-6-yl)-1-(4-(3-(methylsulfonyl)pyrrolidin-1-yl)cyclohexyl)-1,3-dihydro-2H-benzo[d]imidazol-2-one] | 5.09 nM
COc1cc(-c2cc3[nH]c(=O)n(C4CCC(N5CCC(S(C)(=O)=O)C5)CC4)c3cc2C(C)C)cn2ncnc12 (single isomer, unassigned) [Example 289, 6-isopropyl-5-(8-methoxy-[1,2,4]triazolo[1,5-a]pyridin-6-yl)-1-(4-(3-(methylsulfonyl)pyrrolidin-1-yl)cyclohexyl)-1,3-dihydro-2H-benzo[d]imidazol-2-one] | 11.9 nM
COC[C@@H]1CCN(C2CCC(n3c(=O)[nH]c4cc(-c5cc(OC)c6ncnn6c5)c(C(C)C)cc43)CC2)C1 (single isomer, unassigned) [Example 290] | 1.38 nM
COC[C@@H]1CCN(C2CCC(n3c(=O)[nH]c4cc(-c5cc(OC)c6ncnn6c5)c(C(C)C)cc43)CC2)C1 (single isomer, unassigned) [Example 291] | 1.71 nM
COc1cc(-c2cc3[nH]c(=O)n(C4CCC(N5C[C@@H](F)[C@@H](F)C5)CC4)c3cc2C(C)C)cn2ncnc12 (single isomer, unassigned) [Example 292] | 2.21 nM
COc1cc(-c2cc3[nH]c(=O)n(C4CCC(N5C[C@@H](F)[C@@H](F)C5)CC4)c3cc2C(C)C)cn2ncnc12 (single isomer, unassigned) [Example 293] | 10.9 nM
COc1cc(-c2cc3[nH]c(=O)n(C4CCC(N5CCC(F)(F)C5)CC4)c3cc2C(C)C)cn2ncnc12 (single isomer, unassigned) [Example 294, 1-(4-(3,3-difluoropyrrolidin-1-yl)cyclohexyl)-6-isopropyl-5-(8-methoxy-[1,2,4]triazolo[1,5-a]pyridin-6-yl)-1,3-dihydro-2H-benzo[d]imidazol-2-one] | 1.2 nM
COc1cc(-c2cc3[nH]c(=O)n(C4CCC(N5CCC(F)(F)C5)CC4)c3cc2C(C)C)cn2ncnc12 (single isomer, unassigned) [Example 295, 1-(4-(3,3-difluoropyrrolidin-1-yl)cyclohexyl)-6-isopropyl-5-(8-methoxy-[1,2,4]triazolo[1,5-a]pyridin-6-yl)-1,3-dihydro-2H-benzo[d]imidazol-2-one] | 41.8 nM
COc1cc(-c2cc3[nH]c(=O)n(C4CCC(N5CC(F)(F)C5)CC4)c3cc2C(C)C)cn2ncnc12 (single isomer, unassigned) [Example 296] | 31.4 nM
COc1cc(-c2cc3[nH]c(=O)n(C4CCC(N5CC(F)(F)C5)CC4)c3cc2C(C)C)cn2ncnc12 (single isomer, unassigned) [Example 297] | 37.1 nM
Cc1c(-c2cc3[nH]c(=O)n(C4CCC(N5CC6(COC6)C5)CC4)c3cc2C(C)C)cn2ncnc2c1C (single isomer, unassigned) [Example 298] | 16.5 nM
COc1cc(-c2cc3[nH]c(=O)n(C4CCNCC4)c3cc2C)cn2ncnc12 [1 E, 5-(8-methoxy-[1,2,4]triazolo[1,5-a]pyridin-6-yl)-6-methyl-1-(piperidin-4-yl)-1H-benzo[d]imidazol-2(3H)-one, TFA] | 366 nM
Cc1cc2c(cc1-c1cc(C)c3ncnn3c1)[nH]c(=O)n2C1CCNCC1 [1 EA, 6-methyl-5-(8-methyl-[1,2,4]triazolo[1,5-a]pyridin-6-yl)-1-(piperidin-4-yl)-1,3-dihydro-2H-benzo[d]imidazol-2-one] | 344 nM
Cc1cc(-c2ccc3c(c2)[nH]c(=O)n3C2CCNCC2)cn2ncnc12 [1 EB, 5-(8-methyl-[1,2,4]triazolo[1,5-a]pyridin-6-yl)-1-(piperidin-4-yl)-1,3-dihydro-2H-benzo[d]imidazol-2-one] | 1160 nM
Cc1cc2c(cc1-c1cc(C)c3ncnn3c1)[nH]c(=O)n2C1CCCNC1 (stereo not shown) [1 EC, 6-methyl-5-(8-methyl-[1,2,4]triazolo[1,5-a]pyridin-6-yl)-1-(piperidin-3-yl)-1,3-dihydro-2H-benzo[d]imidazol-2-one] | 105 nM
Cc1cc2c(cc1-c1cc(C)c3ncnn3c1)[nH]c(=O)n2[C@@H]1CCCNC1 [1 ED, (R)-6-methyl-5-(8-methyl-[1,2,4]triazolo[1,5-a]pyridin-6-yl)-1-(piperidin-3-yl)-1,3-dihydro-2H-benzo[d]imidazol-2-one] | 18.1 nM
Cc1cc2c(cc1-c1cc(C)c3ncnn3c1)[nH]c(=O)n2[C@H]1CC[C@@H](N)CC1 [1 EE] | 19.3 nM
Cc1cc2c(cc1-c1cc(C)c3ncnn3c1)[nH]c(=O)n2[C@H]1CC[C@H](N)CC1 [1 EF, 1-((1r,4r)-4-aminocyclohexyl)-6-methyl-5-(8-methyl-[1,2,4]triazolo[1,5-a]pyridin-6-yl)-1,3-dihydro-2H-benzo[d]imidazol-2-one] | 40.7 nM
COc1cc(-c2cc3[nH]c(=O)n([C@H]4CC[C@@H](N)CC4)c3cc2C)cn2ncnc12 [1 EG, 1-((1s,4s)-4-aminocyclohexyl)-5-(8-methoxy-[1,2,4]triazolo[1,5-a]pyridin-6-yl)-6-methyl-1,3-dihydro-2H-benzo[d]imidazol-2-one] | 53.2 nM
COc1cc(-c2cc3[nH]c(=O)n([C@@H]4CCCNC4)c3cc2C)cn2ncnc12 [1 EH, (R)-5-(8-methoxy-[1,2,4]triazolo[1,5-a]pyridin-6-yl)-6-methyl-1-(piperidin-3-yl)-1,3-dihydro-2H-benzo[d]imidazol-2-one] | 43 nM
COc1cc(-c2ccc3c(c2)[nH]c(=O)n3C2CCNCC2)cn2ncnc12 [1 EI, 5-(8-methoxy-[1,2,4]triazolo[1,5-a]pyridin-6-yl)-1-(piperidin-4-yl)-1,3-dihydro-2H-benzo[d]imidazol-2-one] | > 3130 nM
Cc1cc(-c2cc(C)c3ncnn3c2)cc2[nH]c(=O)n(C3CCNCC3)c12 [106 F, 7-methyl-5-(8-methyl-[1,2,4]triazolo[1,5-a]pyridin-6-yl)-1-(piperidin-4-yl)-1,3-dihydro-2H-benzo[d]imidazol-2-one] | 50.5 nM
COc1cc(-c2cc3[nH]c(=O)n([C@@H]4CCCNC4)c3cc2C(F)(F)F)cn2ncnc12 [110 F, (R)-5-(8-methoxy-[1,2,4]triazolo[1,5-a]pyridin-6-yl)-1-(piperidin-3-yl)-6-(trifluoromethyl)-1,3-dihydro-2H-benzo[d]imidazol-2-one] | 28.2 nM
CCc1cc2c(cc1-c1cc(OC)c3ncnn3c1)[nH]c(=O)n2[C@@H]1CCCNC1 [119 FB, (R)-6-ethyl-5-(8-methoxy-[1,2,4]triazolo[1,5-a]pyridin-6-yl)-1-(piperidin-3-yl)-1,3-dihydro-2H-benzo[d]imidazol-2-one] | 5.47 nM
Cc1c(-c2cc3[nH]c(=O)n([C@@H]4CCCNC4)c3cc2C(C)C)cn2ncnc2c1C [119 FC, (R)-5-(7,8-dimethyl-[1,2,4]triazolo[1,5-a]pyridin-6-yl)-6-isopropyl-1-(piperidin-3-yl)-1,3-dihydro-2H-benzo[d]imidazol-2-one] | 3.26 nM
